US6552071B2, “Methods for treating cell death diseases and inflammation” (President and Fellows of Harvard College, priority 1999, dated 2003)

Key:
Type in all cases: cell-based
caspase-11 = test: LPS-induced caspase-11 expression in BalbC/3T3 cells, Western blot
Description: FIG. 27 is a graph of the inhibition of caspase-11 induction by synthetic wedelolactone. BalbC/3T3 cells were treated with 0, 30 μM, 40 μM, 60μM, 80 μM or 100 μM of wedelolactone for 1 hour and LPS for an additional 6 hours. The induction of caspase-11 was measured by Western blot analysis and quantification.
To identify modulators of caspase-11 expression or activity, a tissue culture model of caspase-11 induction was generated. In this model, BalbC/3T3 cells normally express undetectable levels of caspase-11 biological activity, as measured by Western blot analysis. […] A caspase-11 modulatory compound may be administered to the cells prior to administration of LPS, and then caspase-11 biological activity may be measured at a specific time after addition of LPS to the culture media of the cells. A caspase-11 modulatory compound that suppresses the LPS-induced biological activity of caspase-11 is considered to be a compound that modulates not only caspase-11 expression, but also cell death or inflammation.
BalbC/3T3 cells were next preincubated with an ethanol extract of the plant Eclipta prostrata L. (454 g of Eclipta prostrata L. was extracted into 8 ml of ethanol; 5 μl of extract/ml of tissue culture media was applied to the cell culture) for 6 hours, followed by treatment with LPS for 6 hours, as described above. The level of caspase-11 protein expression was then measured.

NF-κB = test: NF-κB-luciferase reporter in LPS-treated BalbC/3T3 cells
Description: FIG. 5A is a graph of the effect of the active Eclipta prostrata L. fraction on induction of NF-κB and caspase-11. BalbC/3T3 cells were transfected with an NF-κB luciferase report construct and treated with the ethylacetate fraction of Eclipta prostrata L. ethylacetate extract (EA) or 11,12-dihydroxy coumestan (10 mg/ml) for 1 hour and then treated with 2 μg/ml LPS for 9 hours. Luciferase activity was then determined.
FIG. 28 is a graph of the inhibition of NF-κB activation by synthetic wedelolactone. BalbC/3T3 cells were transfected with NF-κB luciferase construct. Twelve hours later, cells were treated with 0, 20 μM, 40 μM, 60 μM, or 100 μM of wedelolactone for 1 hour and then 2 μg/ml LPS for additional 6 hours. Luciferase activity was then quantified.
Since caspase-11 is induced through the NF-κB pathway, wedelolactone (FIG. 3) may inhibit the activity of NF-κB. To examine this possibility, BalbC/3T3 cells were transfected with an NF-κB-luciferase reporter plasmid (containing an NF-κB response element).
The ability of synthetic wedelolactone to inhibit the activation of NF-κB induced by LPS was also assessed. BalbC/3T3 cells were transfected with a plasmid encoding an NF-κB-luciferase reporter protein in the presence of varying concentrations of wedelolactone. […] These experiments provided the final confirmation that wedelolactone is an inhibitor of NF-κB activation and caspase-11 induction. Thus, wedelolactone can be used to treat cell death diseases and inflammation.

STAT3 = test: Atlas DNA array mRNA expression in LPS-treated BalbC/3T3 cells; conditions: 100 μM 1 h, then LPS 6 h
Text: (§1) One hundred μM wedelolactone reduced the expression of NF-κB p105 mRNA in LPS-treated BalbC/3T3 cells at the ratio of 1 to 8.

STAT1 = test: as above; conditions: 100 μM 1 h, then LPS 6 h
Text: as §1

NF-κB p105 mRNA = test: as above; conditions: 100 μM 1 h, then LPS 6 h, versus LPS only
Text: as §1

Row | IC50 (caspase-11; BALB/c3T3, BalbC/3T3 cells, wedelolactone 1 hour, LPS additional 6 hours, read-out: IC50, inhibition of induction of caspase-11 by LPS) | Compound | Inhibition of caspase-11 expression (caspase-11; general statement in Example 3) | Inhibition of LPS induction of NF-κB luciferase activity (FIG. 5A) (NF-κB; 1 hour pre-treatment, 2 μg/ml LPS 9 hours, coumestan 10 mg/ml) | Suppression of LPS-induced caspase-11 expression (caspase-11; 70 μg/ml, 6 hour pre-treatment, then LPS) | STAT3 expression level, % of control cells treated with LPS only (STAT3) | STAT1 expression level, % of control cells treated with LPS only (STAT1) | Reduction of NF-κB p105 mRNA expression, ratio (NF-κB p105 mRNA) | Inhibition of LPS-induced activation of the NF-κB promoter (FIG. 28) (NF-κB; 0-100 μM 1 hour, 2 μg/ml LPS 6 hours, same concentration range as caspase-11 inhibition) | Inhibition of NF-κB transcriptional activity induced by LPS (NF-κB; 60 and 100 μM)
1 |  | O=c1oc2ccccc2c2oc3cc(O)c(O)cc3c12 [11,12-dihydroxy coumestan, reference compound] | does not inhibit caspase-11 expression | did not inhibit NF-κB induction |  |  |  |  |  | 
2 | ~50 µM | COc1cc(O)c2c(c1)oc(=O)c1c3cc(O)c(O)cc3oc21 [wedelolactone] |  |  | suppressed caspase-11 expression | 30% | 4% | 1 to 8 | inhibited the activation of the NF-κB promoter | inhibited the NF-κB transcriptional activity
